Data taken from patent publication EP0926242A1, “GLIOTOXIN DERIVATIVES AND ANTICANCER AGENT COMPRISING THE SAME” (priority 1996, dated 1998).

Columns and labels:
[1] = test system: human carcinoma of the colon HCT-116; test: Evaluation in vivo using human carcinoma of the colon HCT-116 (Example 1); design: species or system Balb/c nu/nu mice; details: for I. R. (%): day 21, Balb/c nu/nu mice
Protocol: (§1) Balb/c nu/nu mice (female: 5 weeks old) were bought, and HCT- 116 subcultured in vivo in the subcutaneous tissue was taken out. The HCT-116 was minced in a Petridish, and transplanted into the sulcutaneous tissue of […] mice in an amount of 30 mg/mouse by a trucker. The transplanted day was assigned day 0, and the size of the tumor and body weight were measured on day 7 and divided into groups by n=2.
(§2) Acetylgliotoxin was dissolved in dimethyl sulfoxide (DMSO) in a concentration of 100 mg/mL, and adjusted to an object concentration (0.5 mg/kg, 1 mg/kg, 10 mg/kg, 20 mg/kg) by 5 % Tween 80 (saline solution). In the evaluation of 0.5, 1 mg/kg, injection was carried out every day for 5 days, in the case of 10 mg/kg, injected twice on day 7 and day8, and in the case of 20 mg/kg, injected once on day 7.
The anticancer effect was evaluated by the inhibition rate of tumor cell multiplication (IR calculated from the weight of tumor. IR was obtained by the following formula.

[2] = Solubility of the isolated active component; assay type: physicochemical
Protocol: After cultivation by the above method was finished, an equal amount (3 L) of acetone was added to the 3 L culture solution, and extraction was carried out at room temperature for 30 minutes. Acetone was removed from the acetone-containing cultuer solution by an evaporator, and solvent extraction with ethyl acetate was carried out by a separating funnel. The solvent extract was dehydrated by sodium sulfate, and then, evaporated by an evaporator to dryness under reduced poressure to obtain 470 mg of the extract. Subsequently, the extract was adsorbed on a silica gel column, washed with toluene, and active fractions were eluted by toluene/ethyl acetate (8:2). The eluate was concentrated by an evaporator under reduced pressure to obtain 42 mg. The crude matters were subjected to high speed liquid chromatography ("Capsel-Pak C18", Shiseido, solvent: water:acetonitrile = 72:28), and a pure active substance was obtained by isochromatic elution. […] Ultraviolet absorption spectra end 266 nm (water: acetonitrile = 60 : 40) Molecular weight: 368 Thin layer chromatography: Absorbent; HPTLC Kieselgel 60 F 254 (MERK) Developing solvent: hexane : ethyl acetate = 6 : 4 R f value; 0.233 High speed liquid chromatogaphy: Used apparatus; UV detector : Waters 996 (Waters) Pump: HITACHI L―6200 (Hitachi Ltd.) Column: Reversed phase high speed liquid chromatography column for analysis (CAPCELL PAK C18 UG120 5 µ m 4.6 mm ⌀ × 250 mm (Shiseido) Solvent for elution; 30-100 % acetonitrile (linear grudient 20 minutes) Flow rate; 0.8 mL/min Retention time; about 10.5 minutes • Chemical shift values (cf. Fig. 1) in ^1H nuclear magnetic resonance spectra • ^1H―NMR (CDCl3) δ :5.97―6.04 (3H, m), 5.57 (1H, d), 5.02 (1H, d), 4.31 (1H, dd), 4.19 (1H, dd), 3.74 (1H, d), 3.44 (1H, dd), 3.17 (3H, s), 2.96 (1H, d), 2.14 (3H, s) • FAB MASS : 369 (MH^+) • Chemical shift values (cf. Fig. 2) in ^13C nuclear magnetic resonance spectra (600 MH3, CDCL3)

various cancer cells = test: Judgement of apoptosis by DAPI nucleus staining; assay type: cell-based; details: agglomeration of chromosomes, fluorescence microscope
Protocol: Antitumor activity of acetylgliotoxin against various cancer cells was measured by the MTT method. Various cancer cells were adjusted to 4.0 × 10^4 cells/mL by using a medium (hereinafter referred to as medium A) composed of RPMI 1640 medium (GIBCO) containing 10% fetal calf serum, and each 0.1 mL of the cancer cells was pipetted into each well of a 96 well microtiter plate. The plate was incubated in a carbon dioxide gas incubator at 37 °C for 20 hours, and each 0.025 mL of samples (test compounds) suitably diluted with the medium A was added. Then, incubation was further carried out in the carbon dioxide gas incubator at 37 °C for 72 hours. […] Produced crystals were dissolved, and absorbance at 570 nm was measured by a microplate reader. […] Apoptosis was determined by incubating the plate in the carbon dioxide gas incubator at 37 °C for 20 hours, adding each 0.025 mL of samples (test compounds) suitably diluted with the medium A, incubating in the carbon dioxide gas incubator at 37 °C for 72 hours, according to the above method, adding nucleus-staining fluorescent dye DAPI (4,6 - diaminodino-2-henylindole) to each well so as to become 0.5 ng/mL, and after leaving at room temperature for 10 minutes, confirming agglomeration of chromosomes by using a fluorescence microscope.

[3] = Body weight in the HCT-116 evaluation in vivo (Example 1); design: species or system Balb/c nu/nu mice; details: day 21, HCT-116 mice, control 17.5 g
Protocol: as §1, §2

CC(=O)OC1C=CC=C2CC34SSC(CO)(C(=O)N3C21)N(C)C4=O (stereo not shown) [acetylgliotoxin]
I. R. (%) ([1]; 0.5 mg/kg×5 i.p.(d7-11)): 41%
I. R. (%) ([1]; 1 mg/kg×5 i.p.(d7-11)): 65%
I. R. (%) ([1]; 10 mg/kg×2 i.p.(d7, 8)): 65%
I. R. (%) ([1]; 20 mg/kg×1 i.p. (d7)): 28%
duration of anticancer effects ([1]; Test Example (B), 1 mg/kg × 5 and 10 mg/kg × 2): continued up to day 42
Solubility ([2]; in chloroform and dimethyl sulfoxide): Easily soluble
Solubility ([2]; in ethyl acetate, acetonitrile, toluene, methanol and acetone): soluble
Solubility ([2]; in water): slightly soluble
apoptosis (cell death) -inducing ability (various cancer cells): apoptosis (cell death) -inducing ability
weight ([3]; 0.5 mg/kg×5 i.p.(d7-11)): 17.1 g
weight ([3]; 1 mg/kg×5 i.p.(d7-11)): 17.8 g
weight ([3]; 10 mg/kg×2 i.p.(d7, 8)): 15.8 g
weight ([3]; 20 mg/kg×1 i.p. (d7)): 15.9 g
